Measured values published in PubChem BioAssay (NCI).
Where “and” joins values, the source holds several entries; their conditions need not be identical. Equal entries are not always repeated.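 Cultured in 96-well plates, cells were exposed to test compound for 48 hours across five concentrations. GI50 = concentration required for 50% inhibition of growth. TGI: concentration producing complete growth inhibition.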

Columns and labels:
Test in all cases: NCI anticancer screen, dose series, 48 h
786-0 renal = test system: 786-0 renal
A498 renal = test system: A498 renal
A549 NSCLC = test system: A549 NSCLC
ACHN renal = test system: ACHN renal
BT-549 breast = test system: BT-549 breast
CAKI-1 renal = test system: CAKI-1 renal
CCRF-CEM leukemia = test system: CCRF-CEM leukemia
COLO 205 colon = test system: COLO 205 colon
DU-145 prostate = test system: DU-145 prostate
EKVX NSCLC = test system: EKVX NSCLC
HCC-2998 colon = test system: HCC-2998 colon
HCT-116 colon = test system: HCT-116 colon
HCT-15 colon = test system: HCT-15 colon
HL-60(TB) leukemia = test system: HL-60(TB) leukemia
HOP-62 NSCLC = test system: HOP-62 NSCLC
HOP-92 NSCLC = test system: HOP-92 NSCLC
HS 578T breast = test system: HS 578T breast
HT29 colon = test system: HT29 colon
IGROV1 ovarian = test system: IGROV1 ovarian
K-562 leukemia = test system: K-562 leukemia
KM12 colon = test system: KM12 colon
LOX IMVI melanoma = test system: LOX IMVI melanoma
M14 melanoma = test system: M14 melanoma
MALME-3M melanoma = test system: MALME-3M melanoma
MCF7 breast = test system: MCF7 breast
MDA-MB-231 breast = test system: MDA-MB-231 breast
MDA-MB-435 = test system: MDA-MB-435
MOLT-4 leukemia = test system: MOLT-4 leukemia
NCI-H226 lung = test system: NCI-H226 lung
NCI-H23 lung = test system: NCI-H23 lung
NCI-H460 lung = test system: NCI-H460 lung
NCI-H522 lung = test system: NCI-H522 lung
NCI/ADR-RES ovarian = test system: NCI/ADR-RES ovarian
OVCAR-3 ovarian = test system: OVCAR-3 ovarian
OVCAR-4 ovarian = test system: OVCAR-4 ovarian
OVCAR-5 ovarian = test system: OVCAR-5 ovarian
OVCAR-8 ovarian = test system: OVCAR-8 ovarian
PC-3 prostate = test system: PC-3 prostate
RPMI-8226 leukemia = test system: RPMI-8226 leukemia
RXF 393 renal = test system: RXF 393 renal
SF-268 CNS = test system: SF-268 CNS
SF-295 CNS = test system: SF-295 CNS
SF-539 CNS = test system: SF-539 CNS
SK-MEL-2 melanoma = test system: SK-MEL-2 melanoma
SK-MEL-28 melanoma = test system: SK-MEL-28 melanoma
SK-MEL-5 melanoma = test system: SK-MEL-5 melanoma
SK-OV-3 ovarian = test system: SK-OV-3 ovarian
SN12C renal = test system: SN12C renal
SNB-19 CNS = test system: SNB-19 CNS
SNB-75 CNS = test system: SNB-75 CNS
SR leukemia = test system: SR leukemia
SW-620 colon = test system: SW-620 colon
T-47D breast = test system: T-47D breast
TK-10 renal = test system: TK-10 renal
U251 CNS = test system: U251 CNS
UACC-257 melanoma = test system: UACC-257 melanoma
UACC-62 melanoma = test system: UACC-62 melanoma
UO-31 renal = test system: UO-31 renal

CC(=O)O[C@H]1C[C@H](O[C@H]2[C@@H](O)C[C@H](O[C@H]3[C@@H](O)C[C@H](O[C@H]4CC[C@@]5(C)C(CCC6C5C[C@@H](O)[C@]5(C)[C@@H](C7=CC(=O)OC7)CC[C@]65O)C4)O[C@@H]3C)O[C@@H]2C)O[C@H](C)[C@H]1O[C@@H]1O[C@H](CO)[C@@H](O)[C@H](O)[C@H]1O (some centres undefined)
GI50 (786-0 renal): 25.1 nM and 105 nM | TGI (786-0 renal): 89.4 nM and 223 nM | GI50 (A498 renal): 78 nM | TGI (A498 renal): 412 nM | GI50 (A549 NSCLC): 9.03 nM and 31.9 nM | TGI (A549 NSCLC): 16.5 nM and 108 nM | GI50 (ACHN renal): 20.4 nM and 44 nM | TGI (ACHN renal): 69 nM and 179 nM | GI50 (BT-549 breast): 39.4 nM | TGI (BT-549 breast): 129 nM | GI50 (CAKI-1 renal): 29.4 nM and 81.3 nM | TGI (CAKI-1 renal): 183 nM and 345 nM | GI50 (CCRF-CEM leukemia): 17.3 nM and 33.3 nM | TGI (CCRF-CEM leukemia): 49.7 nM and 180 nM | GI50 (COLO 205 colon): 284 nM | TGI (COLO 205 colon): 676 nM | GI50 (DU-145 prostate): 13.8 nM and 110 nM | TGI (DU-145 prostate): 38.7 nM and 232 nM | GI50 (EKVX NSCLC): 22.4 nM and 56.6 nM | TGI (EKVX NSCLC): 83.6 nM and 202 nM | GI50 (HCC-2998 colon): 73 nM and 242 nM | TGI (HCC-2998 colon): 210 nM and 678 nM | GI50 (HCT-116 colon): 18.2 nM and 39.4 nM | TGI (HCT-116 colon): 64 nM and 134 nM | GI50 (HCT-15 colon): 58.7 nM and 200 nM | TGI (HCT-15 colon): 174 nM and 465 nM | GI50 (HL-60(TB) leukemia): 11.2 nM | TGI (HL-60(TB) leukemia): 28.3 nM | GI50 (HOP-62 NSCLC): 19.6 nM and 65.1 nM | TGI (HOP-62 NSCLC): 69.1 nM and 189 nM | GI50 (HOP-92 NSCLC): 78.1 nM and 158 nM | TGI (HOP-92 NSCLC): 243 nM and 612 nM | TGI (HS 578T breast): 1640 nM | GI50 (HT29 colon): 24.6 nM and 120 nM | TGI (HT29 colon): 86.8 nM and 395 nM | GI50 (IGROV1 ovarian): 68.5 nM and 229 nM | TGI (IGROV1 ovarian): 1370 nM and 1310 nM | GI50 (K-562 leukemia): 27.2 nM | TGI (K-562 leukemia): 204 nM | GI50 (KM12 colon): 31.9 nM and 161 nM | TGI (KM12 colon): 140 nM and 382 nM | GI50 (LOX IMVI melanoma): 26.1 nM and 81.8 nM | TGI (LOX IMVI melanoma): 93.7 nM and 238 nM | GI50 (M14 melanoma): 103 nM and 212 nM | TGI (M14 melanoma): 244 nM and 399 nM | GI50 (MALME-3M melanoma): 21.7 nM and 183 nM | TGI (MALME-3M melanoma): 130 nM and 469 nM | GI50 (MCF7 breast): 24.8 nM and 57.5 nM | TGI (MCF7 breast): 189 nM and 694 nM | GI50 (MDA-MB-231 breast): 238 nM and 234 nM | TGI (MDA-MB-231 breast): 1350 nM and 652 nM | GI50 (MDA-MB-435): 110 nM and 275 nM | TGI (MDA-MB-435): 307 nM and 893 nM | GI50 (MOLT-4 leukemia): 11.7 nM and 25.7 nM | TGI (MOLT-4 leukemia): 28.8 nM and 65.6 nM | GI50 (NCI-H226 lung): 174 nM | TGI (NCI-H226 lung): 314 nM | GI50 (NCI-H23 lung): 15.1 nM and 46.8 nM | TGI (NCI-H23 lung): 58.6 nM and 206 nM | GI50 (NCI-H460 lung): 16.5 nM and 34.5 nM | TGI (NCI-H460 lung): 55.7 nM and 135 nM | GI50 (NCI-H522 lung): 10.7 nM and 37.5 nM | TGI (NCI-H522 lung): 37.6 nM and 126 nM | GI50 (NCI/ADR-RES ovarian): 23.3 nM and 76.4 nM | TGI (NCI/ADR-RES ovarian): 86.1 nM and 250 nM | GI50 (OVCAR-3 ovarian): 18.6 nM and 93.2 nM | TGI (OVCAR-3 ovarian): 65.6 nM and 218 nM | GI50 (OVCAR-4 ovarian): 122 nM | TGI (OVCAR-4 ovarian): 442 nM | GI50 (OVCAR-5 ovarian): 65.8 nM and 175 nM | TGI (OVCAR-5 ovarian): 140 nM and 327 nM | GI50 (OVCAR-8 ovarian): 38.5 nM and 159 nM | TGI (OVCAR-8 ovarian): 104 nM and 385 nM | GI50 (PC-3 prostate): 28.7 nM and 103 nM | TGI (PC-3 prostate): 225 nM and 590 nM | GI50 (RPMI-8226 leukemia): 68.2 nM and 200 nM | TGI (RPMI-8226 leukemia): 315 nM and 955 nM | GI50 (RXF 393 renal): 15.8 nM and 63.6 nM | TGI (RXF 393 renal): 63.6 nM and 385 nM | GI50 (SF-268 CNS): 18.5 nM and 51.1 nM | TGI (SF-268 CNS): 73.7 nM and 165 nM | GI50 (SF-295 CNS): 26.8 nM and 73.7 nM | TGI (SF-295 CNS): 286 nM and 581 nM | GI50 (SF-539 CNS): 21.7 nM and 105 nM | TGI (SF-539 CNS): 78.3 nM and 225 nM | GI50 (SK-MEL-2 melanoma): 315 nM | TGI (SK-MEL-2 melanoma): 1000 nM | GI50 (SK-MEL-28 melanoma): 115 nM and 215 nM | TGI (SK-MEL-28 melanoma): 237 nM and 496 nM | GI50 (SK-MEL-5 melanoma): 18.7 nM and 109 nM | TGI (SK-MEL-5 melanoma): 69.9 nM and 233 nM | GI50 (SK-OV-3 ovarian): 28.7 nM and 160 nM | TGI (SK-OV-3 ovarian): 99.6 nM and 314 nM | GI50 (SN12C renal): 20 nM and 47.1 nM | TGI (SN12C renal): 581 nM and 413 nM | GI50 (SNB-19 CNS): 69.2 nM and 212 nM | TGI (SNB-19 CNS): 256 nM and 557 nM | GI50 (SNB-75 CNS): 57.7 nM and 138 nM | TGI (SNB-75 CNS): 147 nM and 304 nM | GI50 (SR leukemia): 15.1 nM and 44 nM | TGI (SR leukemia): 97.7 nM and 281 nM | GI50 (SW-620 colon): 23.8 nM and 63.1 nM | TGI (SW-620 colon): 86 nM and 302 nM | GI50 (T-47D breast): 22.8 nM and 166 nM | TGI (T-47D breast): 167 nM and 576 nM | GI50 (TK-10 renal): 14.6 nM and 145 nM | GI50 (U251 CNS): 29.8 nM and 113 nM | TGI (U251 CNS): 91 nM and 234 nM | GI50 (UACC-257 melanoma): 85.2 nM and 347 nM | TGI (UACC-257 melanoma): 162 nM and 1180 nM | GI50 (UACC-62 melanoma): 93.8 nM and 173 nM | TGI (UACC-62 melanoma): 196 nM and 343 nM | GI50 (UO-31 renal): 64.8 nM and 179 nM | TGI (UO-31 renal): 237 nM and 343 nM
